Data reported in ChEMBL document CHEMBL4043281, “Development of a peptide-based inducer of protein degradation targeting NOTCH1” (Bioorg Med Chem Lett, 2017).
The source made the active and inactive calls. The calls are words filed in the database; no cut-off is given here. Positions of bridges follow the written chain, without caps; N, C: chain ends. Non-standard residues stand in square brackets, D forms with d. Residues, ends and D or L forms follow the SMILES beside them. Dip = N[C@H](C(=O)O)C(c1ccccc1)c1ccccc1; Chg = N[C@H](C(=O)O)C1CCCCC1; S5 = C=CCCC[C@](C)(N)C(=O)O; NMeA = CN[C@@H](C)C(=O)O; AEEA = NCCOCCOCC(=O)O; βAla = NCCC(=O)O

What was measured:
Homo sapiens [1] = organism: Homo sapiens; test: Induction of IAP-mediated NOTCH1 protein degradation in human MOLT4 cells assessed as ratio of NOTCH1 to lamin protein level at 50 uM after 6 hrs by Western blot analysis (reference value: 100%); assay type: cell-based
Homo sapiens [2] = organism: Homo sapiens; test: Induction of IAP-mediated NOTCH1 protein degradation in human MOLT4 cells assessed as ratio of NOTCH1 to lamin protein level at 20 uM after 6 hrs by Western blot analysis (reference value: 91%); assay type: cell-based
Homo sapiens [3] = organism: Homo sapiens; test: Induction of IAP-mediated NOTCH1 protein degradation in human MOLT4 cells assessed as ratio of NOTCH1 to lamin protein level at 50 uM after 6 hrs by Western blot analysis (reference value: 91%); assay type: cell-based
Homo sapiens [4] = organism: Homo sapiens; test: Induction of IAP-mediated NOTCH1 protein degradation in human MOLT4 cells assessed as ratio of NOTCH1 to lamin protein level at 100 uM after 6 hrs by Western blot analysis (reference value: 91%); assay type: cell-based
MOLT-4 [5] = test: Induction of CSL protein degradation in human MOLT4 cells assessed as ratio of CSL to lamin protein level at 50 uM after 6 hrs by Western blot analysis (reference value: 100%); assay type: functional
MOLT-4 [6] = test: Induction of CSL protein degradation in human MOLT4 cells assessed as ratio of CSL to lamin protein level at 20 uM after 6 hrs by Western blot analysis (reference value: 111%); assay type: functional
MOLT-4 [7] = test: Induction of CSL protein degradation in human MOLT4 cells assessed as ratio of CSL to lamin protein level at 50 uM after 6 hrs by Western blot analysis (reference value: 111%); assay type: functional
MOLT-4 [8] = test: Induction of CSL protein degradation in human MOLT4 cells assessed as ratio of CSL to lamin protein level at 100 uM after 6 hrs by Western blot analysis (reference value: 111%); assay type: functional
Homo sapiens [9] = organism: Homo sapiens; test: Induction of IAP-mediated NOTCH1 protein degradation in human MOLT4 cells assessed as ratio of NOTCH1 to lamin protein level at 60 uM after 6 hrs by Western blot analysis (reference value: 100%); assay type: cell-based
Homo sapiens [10] = organism: Homo sapiens; test: Induction of IAP-mediated NOTCH1 protein degradation in human MOLT4 cells assessed as ratio of NOTCH1 to lamin protein level at 70 uM after 6 hrs by Western blot analysis (reference value: 100%); assay type: cell-based
Homo sapiens [11] = organism: Homo sapiens; test: Induction of IAP-mediated NOTCH1 protein degradation in human MOLT4 cells assessed as ratio of NOTCH1 to lamin protein level at 80 uM after 6 hrs by Western blot analysis (reference value: 100%); assay type: cell-based
MOLT-4 [12] = test: Induction of CSL protein degradation in human MOLT4 cells assessed as ratio of CSL to lamin protein level at 60 uM after 6 hrs by Western blot analysis (reference value: 100%); assay type: functional
MOLT-4 [13] = test: Induction of CSL protein degradation in human MOLT4 cells assessed as ratio of CSL to lamin protein level at 70 uM after 6 hrs by Western blot analysis (reference value: 100%); assay type: functional
MOLT-4 [14] = test: Induction of CSL protein degradation in human MOLT4 cells assessed as ratio of CSL to lamin protein level at 80 uM after 6 hrs by Western blot analysis (reference value: 100%); assay type: functional
Homo sapiens [15] = organism: Homo sapiens; test: Induction of IAP-mediated NOTCH1 protein degradation in human MOLT4 cells assessed as reduction in c-Myc level at 80 uM by Western blot analysis; assay type: cell-based; conditions: TDE = time-dependent effect
Homo sapiens [16] = organism: Homo sapiens; test: Antagonist activity IAP in human MOLT4 cells assessed as reduction in cIAP1 protein level at 50 to 80 uM after 6 hrs by Western blot analysis; assay type: cell-based
MOLT-4 [17] = test: Cytotoxicity against human MOLT4 cells at >100 uM; assay type: cell-based
Homo sapiens [18] = organism: Homo sapiens; test: Induction of IAP-mediated NOTCH1 protein degradation in human MOLT4 cells assessed as ratio of NOTCH1 to beta-actin protein level at 80 uM after 2 hrs by Western blot analysis (reference value: 100%); assay type: cell-based
Homo sapiens [19] = organism: Homo sapiens; test: Induction of IAP-mediated NOTCH1 protein degradation in human MOLT4 cells assessed as ratio of NOTCH1 to beta-actin protein level at 80 uM after 4 hrs by Western blot analysis (reference value: 100%); assay type: cell-based
Homo sapiens [20] = organism: Homo sapiens; test: Induction of IAP-mediated NOTCH1 protein degradation in human MOLT4 cells assessed as ratio of NOTCH1 to beta-actin protein level at 80 uM after 6 hrs by Western blot analysis (reference value: 100%); assay type: cell-based
Homo sapiens [21] = organism: Homo sapiens; test: Induction of IAP-mediated NOTCH1 protein degradation in human MOLT4 cells assessed as ratio of NOTCH1 to beta-actin protein level at 80 uM after 8 hrs by Western blot analysis (reference value: 100%); assay type: cell-based
Homo sapiens [22] = organism: Homo sapiens; test: Induction of IAP-mediated NOTCH1 protein degradation in human MOLT4 cells assessed as ratio of NOTCH1 to beta-actin protein level at 80 uM after 10 hrs by Western blot analysis (reference value: 100%); assay type: cell-based
Homo sapiens [23] = organism: Homo sapiens; test: Induction of IAP-mediated NOTCH1 protein degradation in human MOLT4 cells assessed as reduction in c-Myc level by measuring ratio of c-Myc to beta-actin protein level at 80 uM after 2 hrs by Western blot analysis (reference value: 100%); assay type: cell-based
Homo sapiens [24] = organism: Homo sapiens; test: Induction of IAP-mediated NOTCH1 protein degradation in human MOLT4 cells assessed as reduction in c-Myc level by measuring ratio of c-Myc to beta-actin protein level at 80 uM after 4 hrs by Western blot analysis (reference value: 100%); assay type: cell-based
Homo sapiens [25] = organism: Homo sapiens; test: Induction of IAP-mediated NOTCH1 protein degradation in human MOLT4 cells assessed as reduction in c-Myc level by measuring ratio of c-Myc to beta-actin protein level at 80 uM after 6 hrs by Western blot analysis (reference value: 100%); assay type: cell-based
Homo sapiens [26] = organism: Homo sapiens; test: Induction of IAP-mediated NOTCH1 protein degradation in human MOLT4 cells assessed as reduction in c-Myc level by measuring ratio of c-Myc to beta-actin protein level at 80 uM after 8 hrs by Western blot analysis (reference value: 100%); assay type: cell-based
Homo sapiens [27] = organism: Homo sapiens; test: Induction of IAP-mediated NOTCH1 protein degradation in human MOLT4 cells assessed as reduction in c-Myc level by measuring ratio of c-Myc to beta-actin protein level at 80 uM after 10 hrs by Western blot analysis (reference value: 100%); assay type: cell-based
Homo sapiens [28] = organism: Homo sapiens; test: Induction of IAP-mediated NOTCH1 protein degradation in human MOLT4 cells assessed as ratio of NOTCH1 to lamin protein level at 60 uM after 6 hrs in presence of proteasome inhibitor MG132 by Western blot analysis (reference value: 100%); assay type: cell-based
Homo sapiens [29] = organism: Homo sapiens; test: Induction of IAP-mediated NOTCH1 protein degradation in human MOLT4 cells assessed as ratio of NOTCH1 to lamin protein level at 70 uM after 6 hrs in presence of proteasome inhibitor MG132 by Western blot analysis (reference value: 100%); assay type: cell-based
Homo sapiens [30] = organism: Homo sapiens; test: Induction of IAP-mediated NOTCH1 protein degradation in human MOLT4 cells assessed as ratio of NOTCH1 to lamin protein level at 80 uM after 6 hrs in presence of proteasome inhibitor MG132 by Western blot analysis (reference value: 100%); assay type: cell-based

Q: `CC[C@H](C)[C@H](NC(=O)[C@H](CCCNC(=N)N)NC(=O)[C@H](CCCNC(=N)N)NC(=O)[C@H](CCCNC(=N)N)NC(=O)[C@H](CC(C)C)NC(=O)[C@H](CCCNC(=N)N)NC(=O)[C@H](CCC(=O)O)NC(=O)CCNC(=O)COCCOCCNC(=O)COCCOCCNC(=O)[C@@H](NC(=O)[C@@H]1CCCN1C(=O)[C@@H](NC(=O)[C@H](C)NC)C1CCCCC1)C(c1ccccc1)c1ccccc1)C(=O)N[C@@]1(C)CCC/C=C\CCC[C@@](C)(C(=O)N[C@@H](CCCNC(=N)N)C(=O)N[C@@H](Cc2cnc[nH]2)C(=O)N[C@@H](Cc2cnc[nH]2)C(=O)N[C@@H](CO)C(=O)N[C@H](C(=O)O)[C@@H](C)O)NC(=O)[C@H](CS)NC(=O)[C@H](CC(C)C)NC1=O` (H-[NMeA][Chg]P[Dip][AEEA][AEEA][βAla]ERLRRRI[S5]LC[S5]RHHST-OH; staple (Z) 15-18) was tested. Which Ratio (Homo sapiens [1]) did it give?
A: 88%

Q: And the Ratio (Homo sapiens [2])?
A: 99%

Q: And the Ratio (Homo sapiens [3])?
A: 76%

Q: What about the Ratio (Homo sapiens [4]) of the same molecule?
A: 30%

Q: And the Ratio (MOLT-4 [5])?
A: 110%

Q: And the Ratio (MOLT-4 [6])?
A: 114%

Q: And the Ratio (MOLT-4 [7])?
A: 99%

Q: What about the Ratio (MOLT-4 [8]) of the same molecule?
A: 83%

Q: What about the Ratio (Homo sapiens [9]) of the same molecule?
A: 72 to 75%

Q: What about the Ratio (Homo sapiens [10]) of the same molecule?
A: 63 to 70%

Q: What about the Ratio (Homo sapiens [11]) of the same molecule?
A: 48 to 67%

Q: What about the Ratio (MOLT-4 [12]) of the same molecule?
A: 108%

Q: And the Ratio (MOLT-4 [13])?
A: 112%

Q: What about the Ratio (MOLT-4 [14]) of the same molecule?
A: 118%

Q: And the Activity (Homo sapiens [15])?
A: Tde

Q: What about the inhibition (Homo sapiens [16]) of the same molecule?
A: Active

Q: And the Activity (MOLT-4 [17])?
A: Toxic

Q: What about the Ratio (Homo sapiens [18]) of the same molecule?
A: 67%

Q: And the Ratio (Homo sapiens [19])?
A: 52%

Q: What about the Ratio (Homo sapiens [20]) of the same molecule?
A: 54%

Q: What about the Ratio (Homo sapiens [21]) of the same molecule?
A: 56%

Q: What about the Ratio (Homo sapiens [22]) of the same molecule?
A: 43%

Q: And the Ratio (Homo sapiens [23])?
A: 62%

Q: What about the Ratio (Homo sapiens [24]) of the same molecule?
A: 73%

Q: And the Ratio (Homo sapiens [25])?
A: 63%

Q: What about the Ratio (Homo sapiens [26]) of the same molecule?
A: 56%

Q: And the Ratio (Homo sapiens [27])?
A: 43%

Q: And the Ratio (Homo sapiens [28])?
A: 92%

Q: What about the Ratio (Homo sapiens [29]) of the same molecule?
A: 108%

Q: And the Ratio (Homo sapiens [30])?
A: 110%
